Experimental data taken from patent US6448279B1, “Isothiazolone/amine oxide wood preservatives” (Lonza Inc., priority 1999, dated 2002).

Experiments:
Test in all cases: agar dilution plate method, percent retardation of wood rot fungi
Format in all cases: cell-based
[1] = tested on: C. globosum (soft rot decay fungi)
Procedure: (§1) The efficacy of aqueous 1,2-benzisothiazolone/amine oxide solutions containing the amine oxides in Table 1 against the wood rot fungi T. versicolor (white rot fungi), G. trabeum (brown rot fungi), P. placenta (brown rot fungi), and C. globosum (soft rot decay fungi) were determined using the agar dilution plate method well known in the art. The water in the solution was evaporated to form an agar/biocide mixture and then tested. Each solution was tested at dilutions ranging from 10 to 5000 ppm of benzisothiazolone. The weight ratio of amine oxide to 1,2-benzisothiazolone was either 20:1 or 10:1 in each solution. The percent retardation of the fungi was determined by the percentage change in the diameter of the fungi on the agar plate (i.e. Percent Retardation=((Diameter of Control)−(Diameter of Treated Fungi))/(Diameter of Control)* 100%).
(§2) The efficacy of aqueous 4,5-dichloro-2-n-octyl-3-isothiazolone/amine oxide solutions containing the amine oxides in Table 2 against the wood rot fungi T. versicolor (white not fungi), G. trabeum (brown rot fungi), P. placenta (brown rot fungi), and C. globosum (soft rot decay fungi) were determined as described in Example 6.

[2] = tested on: G. trabeum (brown rot fungi)
Procedure: as §1, §2

[3] = tested on: P. placenta (brown rot fungi)
Procedure: as §1, §2

[4] = tested on: T. versicolor (white rot fungi)
Procedure: as §1, §2

[5] = no amine oxide, 4,5-dichloro-2-n-octyl-isothiazolone 0.5 ppm
[6] = no amine oxide, 4,5-dichloro-2-n-octyl-isothiazolone 5 ppm
[7] = no amine oxide, 4,5-dichloro-2-n-octyl-isothiazolone 50 ppm
[8] = no amine oxide, 4,5-dichloro-2-n-octyl-isothiazolone 100 ppm
[9] = no amine oxide, 4,5-dichloro-2-n-octyl-isothiazolone 250 ppm
[10] = no amine oxide, 4,5-dichloro-2-n-octyl-isothiazolone 500 ppm
[11] = no amine oxide, 4,5-dichloro-2-n-octyl-isothiazolone 750 ppm

With `CCCCCCCCn1sc(Cl)c(Cl)c1=O` [4,5-dichloro-2-n-octyl-isothiazolone, 4,5-dichloro-2-n-octyl-3-isothiazolone] the “Percent Retardation C. globosum” value [1, 5] was 63%, the “Percent Retardation C. globosum” value [1, 6] was 60% and the “Percent Retardation C. globosum” value [1, 7] was 67%. For the same molecule, the “Percent Retardation C. globosum” value [1, 8] was 78%, the “Percent Retardation C. globosum” value [1, 9] was 89% and the “Percent Retardation C. globosum” value [1, 10] was 100%. The “Percent Retardation C. globosum” value [1, 11] was 100%, the “Percent Retardation G. trabeum” value [2, 5] was 11% and the “Percent Retardation G. trabeum” value [2, 6] was 63%. The “Percent Retardation G. trabeum” value [2, 7] was 83%, the “Percent Retardation G. trabeum” value [2, 8] was 85% and the “Percent Retardation G. trabeum” value [2, 9] was 87%. For the same molecule, the “Percent Retardation G. trabeum” value [2, 10] was 88%, the “Percent Retardation G. trabeum” value [2, 11] was 100% and the “Percent Retardation P. placenta” value [3, 5] was 42%. The “Percent Retardation P. placenta” value [3, 6] was 83%, the “Percent Retardation P. placenta” value [3, 7] was 100% and the “Percent Retardation P. placenta” value [3, 8] was 100%. The “Percent Retardation P. placenta” value [3, 9] was 100%, the “Percent Retardation P. placenta” value [3, 10] was 100% and the “Percent Retardation T Versicolor” value [4, 5] was 12%. For the same molecule, the “Percent Retardation T Versicolor” value [4, 6] was 51%, the “Percent Retardation T Versicolor” value [4, 7] was 82% and the “Percent Retardation T Versicolor” value [4, 8] was 87%. The “Percent Retardation T Versicolor” value [4, 9] was 87%, the “Percent Retardation T Versicolor” value [4, 10] was 88% and the “Percent Retardation T Versicolor” value [4, 11] was 100%.
